Each structure is given as a SMILES string. Some results are limits rather than exact numbers.

By AC50 is commonly meant the concentration giving half of the maximal activity seen.

wild type PKM2, sequence (P14618 whole entry): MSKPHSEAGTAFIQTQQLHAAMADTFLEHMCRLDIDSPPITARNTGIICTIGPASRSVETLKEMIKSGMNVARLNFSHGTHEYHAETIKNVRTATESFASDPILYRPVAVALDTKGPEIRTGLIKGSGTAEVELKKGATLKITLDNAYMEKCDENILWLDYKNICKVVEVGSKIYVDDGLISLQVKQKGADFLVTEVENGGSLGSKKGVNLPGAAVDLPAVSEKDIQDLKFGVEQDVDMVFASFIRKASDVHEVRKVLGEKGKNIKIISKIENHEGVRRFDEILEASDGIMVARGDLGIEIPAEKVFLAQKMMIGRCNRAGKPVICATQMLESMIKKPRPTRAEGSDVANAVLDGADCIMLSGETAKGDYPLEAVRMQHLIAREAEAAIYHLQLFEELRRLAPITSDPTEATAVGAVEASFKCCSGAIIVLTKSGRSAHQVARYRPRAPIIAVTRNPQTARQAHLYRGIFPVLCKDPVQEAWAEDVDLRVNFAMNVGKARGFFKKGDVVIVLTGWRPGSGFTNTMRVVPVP

The target of this test is wild type PKM2 (Homo sapiens, UniProt P14618). Put plainly: PKM2 Assay (LDH/NADH-coupled, absorbance at 340 nm). The note with it: wild type PKM2 activation; 60 min preincubation at 25° C.; ADP 0.4 mM, PEP 0.11 mM; read-out: PKM2 WT AC50. In kind it is biochemical. As for the experimental part:
A compound described herein may be tested for its ability to activate PKM2. For simplicity, the activation activity of these compounds is represented as an AC50 in Table 2. In Tables 2, a compound described herein may have an AC50 of wild type PKM2.
PKM2 enzyme stock solution was diluted to prepare a 1.11× Reaction Mix (without ADP). 1 μL of test compound was first added to the wells followed by 40 μL of 1.11× Reaction Mix (without ADP) and incubated at room temperature (25° C.) for 60 min. The reaction was initiated with 10 μL ADP (0.4 mM final concentration), bringing the final Reaction Mix to 1×, and the reaction progress was measured as changes in absorbance at 340 nm wavelength at room temperature.
Test compound preparation: Test compounds were prepared at 50× final concentration in DMSO. 1 to 3 dilutions were made for 11 points (for example 50 μL of 5000 μM compound was added to 100 μL 100% DMSO to yield a 1667 μM, 50 μL of this added to 100 μL DMSO to yield 556 μM, and so forth). The compounds were added to the assay as a 1 to 50 dilution (1 μL in 50 μL) to yield a top concentration of 100 μM, decreasing 3-fold for 11 points.
Reaction Mix: PKM2 (5 ng/well, 0.1 μg/ml), ADP (0.4 mM), PEP (0.11 mM), NADH (180 μM), LDH (0.005 U/μL, Sigma #L3888), 1 mM DTT, 0.03% BSA in 1× Reaction Buffer
Reaction Buffer: 100 mM KCl, 50 mM Tris pH 7.5, 5 mM MgCl2.
Take `Cn1ccc(Cn2ncc3c4sc(C(=O)c5cc[nH]n5)nc4n(C)c3c2=O)n1` [Compound 122]: the AC50 is below 300 nM.

As to `CC(=O)c1cccc(Cn2ncc3c4sc([S+](C)[O-])nc4n(C)c3c2=O)c1` (stereo not shown) [Compound 32], the half-maximal activity concentration (AC50) was below 300 nM.

On to `Cn1c2nc(Cc3ccns3)sc2c2cnn(Cc3cccc4[nH]ncc34)c(=O)c21` [Compound 82], for which the half-maximal activity concentration (AC50) was 301 to 800 nM.

On to `Cn1c2nc(Cc3ccc(Cl)nc3)sc2c2cnn(Cc3cccc4[nH]ncc34)c(=O)c21` [Compound 55], for which the AC50 is above 800 nM.

With `Cn1c2nc(Cc3csc(CO)n3)sc2c2cnn(Cc3nccs3)c(=O)c21` [Compound 93], the AC50 is below 300 nM.

Regarding `C=Cc1nc2c(s1)c1cnn(Cc3cccc(OC)c3)c(=O)c1n2C` [Compound 11], the AC50 is below 300 nM.

For the compound `Cn1ccc(Cn2ncc3c4sc(Cc5cc[nH]n5)nc4n(C)c3c2=O)n1` [Compound 83], the AC50 is below 300 nM.

Consider `Cn1c2nc(Cc3cc[nH]n3)sc2c2cnn(Cc3coc(C(N)=O)n3)c(=O)c21` [Compound 132], for which the AC50 is below 300 nM.

Turning to `Cn1c2nc(Cc3ccc(C(N)=O)cc3)sc2c2cnn(Cc3cccc4[nH]ncc34)c(=O)c21` [Compound 42], the AC50 was above 800 nM.

Turning to `CSc1nc2c(s1)c1cnn(Cc3cccc(S(N)(=O)=O)c3)c(=O)c1n2C` [Compound 41], the AC50 lay within 301 to 800 nM.

For `Cn1c2nc(Cc3ccccn3)sc2c2cnn(CC3CCOCC3)c(=O)c21` [Compound 139], the AC50 was above 800 nM.

For `Cn1c2nc(Cc3ccncc3)sc2c2cnn(Cc3cccc4[nH]ncc34)c(=O)c21` [Compound 57], the concentration at half-maximal activity (AC50) is above 800 nM.

Take `CCn1c2nc(Cc3cc[nH]n3)sc2c2cnn(Cc3ccccc3)c(=O)c21` [Compound 138]: the AC50 is above 800 nM.

For the compound `Cn1c2nc(Cc3cc[nH]n3)sc2c2cnn(Cc3c[nH]nn3)c(=O)c21` [Compound 89], the AC50 was below 300 nM.

Regarding `COc1cccc(Cn2ncc3c4sc(C(=O)c5ccccc5)nc4n(C)c3c2=O)c1` [Compound 1], the AC50 was below 300 nM.

With `Cn1c2nc(Cc3cc[nH]n3)sc2c2cnn(Cc3ncsc3C(F)(F)F)c(=O)c21` [Compound 95], the AC50 is above 800 nM.

In the case of `CSc1nc2c(s1)c1cnn(Cc3cn4cccnc4n3)c(=O)c1n2C` [Compound 40], the AC50 is above 800 nM.

With `Cc1nc2c(s1)c1cnn(Cc3cccc4cn[nH]c34)c(=O)c1n2C` [Compound 23], the AC50 was in the range of 301 to 800 nM.

With `Cn1c2nc(Cc3ccc(C#N)cc3)sc2c2cnn(Cc3cccc4[nH]ncc34)c(=O)c21` [Compound 33], the AC50 is above 800 nM.

On to `COCc1cn(C)nc1Cn1ncc2c3sc(Cc4cc[nH]n4)nc3n(C)c2c1=O` [Compound 120], for which the AC50 was above 800 nM.

Take `Cn1c2nc(Cc3c[nH]nn3)sc2c2cnn(Cc3cccc(N)n3)c(=O)c21` [Compound 104]: the AC50 is below 300 nM.

With `Cn1c2nc([S+](C)[O-])sc2c2cnn(Cc3cnc(N)nc3)c(=O)c21` (stereo not shown) [Compound 34], the AC50 was above 800 nM.

In the case of `Cc1cccc(Cn2ncc3c4sc(Cc5cc[nH]n5)nc4n(C)c3c2=O)n1` [Compound 73], the AC50 is below 300 nM.

Turning to `Cc1nc2c(s1)c1cnn(Cc3ccc(CO)cc3)c(=O)c1n2C` [Compound 14], the AC50 was above 800 nM.

Turning to `Cn1c2nc(Cc3n[nH]cc3C(F)(F)F)sc2c2cnn(Cc3cccc4[nH]ncc34)c(=O)c21` [Compound 59], the AC50 is above 800 nM.

In the case of `Cn1c2nc(Cc3cc[nH]n3)sc2c2cnn(Cc3cccc4c3CCN4)c(=O)c21` [Compound 85], the AC50 is below 300 nM.

As to `Cn1c2nc(Cc3cc[nH]n3)sc2c2cnn(Cc3n[nH]cc3F)c(=O)c21` [Compound 105], the AC50 is below 300 nM.

On to `Cn1c2nc(Cc3n[nH]cc3F)sc2c2cnn(Cc3cc[nH]n3)c(=O)c21` [Compound 111], for which the AC50 is below 300 nM.

Consider `Cc1nc2c(s1)c1cnn(Cc3cccc([N+](=O)[O-])c3)c(=O)c1n2C` [Compound 16], for which the AC50 is 301 to 800 nM.

Consider `Cn1cc(C(=O)O)c(Cn2ncc3c4sc(Cc5cc[nH]n5)nc4n(C)c3c2=O)n1` [Compound 117], for which the AC50 is above 800 nM.

Take `CSc1nc2c(s1)c1cnn(Cc3csc(-n4c(C)ccc4C)n3)c(=O)c1n2C` [Compound 47]: the AC50 was above 800 nM.

Consider `Cn1c2nc(Cn3cncn3)sc2c2cnn(Cc3ccnc(N)n3)c(=O)c21` [Compound 143], for which the AC50 was above 800 nM.

Turning to `Cc1nc2c(s1)c1cnn(Cc3ccc4[nH]c(=O)[nH]c4c3)c(=O)c1n2C` [Compound 22], the AC50 is above 800 nM.

On to `Cn1c2nc(Cc3cc[nH]n3)sc2c2cnn(Cc3nc(N)ccc3F)c(=O)c21` [Compound 107], for which the AC50 is below 300 nM.

For the compound `COC(=O)C(c1ccccc1)c1nc2c(s1)c1cnn(Cc3cccc4[nH]ncc34)c(=O)c1n2C` (stereo not shown) [Compound 51], the AC50 is below 300 nM.

For the compound `O=c1c2c(cnn1Cc1ccccc1)c1sc(Cc3cc[nH]n3)nc1n2Cc1ccccc1` [Compound 142], the AC50 was above 800 nM.

As to `Cn1c2nc(Nc3ccccc3)sc2c2cnn(Cc3cccc4[nH]ncc34)c(=O)c21` [Compound 52], the AC50 is above 800 nM.

With `Cn1cc(CN)c(Cn2ncc3c4sc(Cc5cc[nH]n5)nc4n(C)c3c2=O)n1` [Compound 124], the AC50 lay in the range of 301 to 800 nM.

Turning to `COc1ncc(Cc2nc3c(s2)c2cnn(Cc4cccc5[nH]ncc45)c(=O)c2n3C)cn1` [Compound 80], the AC50 was below 300 nM.

Take `Cn1nncc1Cn1ncc2c3sc(Cc4cc[nH]n4)nc3n(C)c2c1=O` [Compound 108]: the AC50 is below 300 nM.

With `CC(=O)Nc1ccc(F)c(Cn2ncc3c4sc(Cc5cc[nH]n5)nc4n(C)c3c2=O)n1` [Compound 115], the AC50 is below 300 nM.

For the compound `Cn1c2nc(Cc3csc(C(N)=O)n3)sc2c2cnn(Cc3cccc4[nH]ncc34)c(=O)c21` [Compound 79], the AC50 is above 800 nM.

`Cn1c2nc(Cc3cc[nH]n3)sc2c2cnn(Cc3cccc4nn[nH]c34)c(=O)c21` [Compound 77]: the AC50 was below 300 nM.

For `CC(=O)Nc1ccc(F)c(Cn2ncc3c4sc(Cn5ccnc5)nc4n(C)c3c2=O)n1` [Compound 130], the AC50 is above 800 nM.

With `Cn1c2nc(C(O)c3ccccn3)sc2c2cnn(Cc3cccc4[nH]ncc34)c(=O)c21` (stereo not shown) [Compound 48], the AC50 was above 800 nM.

On to `Cn1c2nc(Cn3ccnc3)sc2c2cnn(Cc3cccc4[nH]ncc34)c(=O)c21` [Compound 99], for which the AC50 is below 300 nM.

`Cn1c2nc([S+](C)[O-])sc2c2cnn(Cc3cccc4c3CCNC4)c(=O)c21` (stereo not shown) [Compound 30]: the AC50 was below 300 nM.

With `Cn1c2nc(Cc3cc[nH]n3)sc2c2cnn(Cc3cncs3)c(=O)c21` [Compound 70], the AC50 is below 300 nM.

Regarding `Cn1c2nc(C#N)sc2c2cnn(Cc3csc(N)n3)c(=O)c21` [Compound 54], the AC50 was below 300 nM.

`CNCc1nc2c(s1)c1cnn(Cc3cccc4[nH]ncc34)c(=O)c1n2C` [Compound 46]: the AC50 is below 300 nM.

Regarding `Cn1c2nc(Cc3cnc(O)nc3)sc2c2cnn(Cc3cccc4[nH]ncc34)c(=O)c21` [Compound 81], the AC50 is above 800 nM.

With `Cn1c2nc([S+](C)[O-])sc2c2cnn(Cc3ccc(C(N)=O)cc3)c(=O)c21` (stereo not shown) [Compound 37], the AC50 was above 800 nM.

As to `Cn1ccc(Cn2ncc3c4sc(Cc5cscn5)nc4n(C)c3c2=O)n1` [Compound 96], the AC50 was below 300 nM.

With `Cc1nc2c(s1)c1cnn(Cc3cn[nH]c3)c(=O)c1n2C` [Compound 26], the AC50 is 301 to 800 nM.

As for `Cn1c2nc(Cc3cc[nH]n3)sc2c2cnn(Cc3csc(CO)n3)c(=O)c21` [Compound 68], the AC50 was below 300 nM.

On to `Cn1c2nc([S+](C)[O-])sc2c2cnn(Cc3cnc(N)s3)c(=O)c21` (stereo not shown) [Compound 38], for which the AC50 was below 300 nM.

With `Cn1c2nc(Cn3cnnc3)sc2c2cnn(Cc3cccc4[nH]ncc34)c(=O)c21` [Compound 102], the AC50 lay in the range of 301 to 800 nM.

With `Cn1c2nc(C(c3cccc4[nH]ncc34)S(=O)(=O)c3ccccc3)sc2c2cnn(Cc3cccc4[nH]ncc34)c(=O)c21` (stereo not shown) [Compound 50], the AC50 is above 800 nM.

On to `Cc1nc2c(s1)c1cnn(Cc3cccc4c3cnn4C)c(=O)c1n2C` [Compound 28], for which the AC50 is below 300 nM.

Regarding `Cn1c2nc(Cc3cc[nH]n3)sc2c2cnn(Cc3ccnc(N)n3)c(=O)c21` [Compound 134], the AC50 was below 300 nM.

On to `COc1cccc(Cn2ncc3c4sc(CC5CCCCC5)nc4n(C)c3c2=O)c1` [Compound 19], for which the AC50 was above 800 nM.

`Cc1nc2c(s1)c1cnn(CCOCCO)c(=O)c1n2C` [Compound 20]: the AC50 is above 800 nM.

In the case of `C=CCn1ncc2c3sc(Cc4ccccn4)nc3n(C)c2c1=O` [Compound 133], the AC50 was above 800 nM.

As to `Cc1nc2c(s1)c1cnn(CCCO)c(=O)c1n2C` [Compound 15], the AC50 was above 800 nM.

As to `CSc1nc2c(s1)c1cnn(Cc3ccc(S(N)(=O)=O)cc3)c(=O)c1n2C` [Compound 44], the concentration at half-maximal activity (AC50) was above 800 nM.

For `Cn1c2nc(Cc3csc(CO)n3)sc2c2cnn(Cc3cc[nH]n3)c(=O)c21` [Compound 90], the AC50 is below 300 nM.

As to `COc1cccc(Cn2ncc3c4sc(C(=O)c5cccc(O)c5)nc4n(C)c3c2=O)c1` [Compound 21], the AC50 is below 300 nM.

These data come from patent US11872225B2, “Pyruvate kinase modulators and use thereof” (Agios Pharmaceuticals, Inc., priority 2017, dated 2024).
